Experimental data taken from publication PMC5915154, “Aloe-emodin as drug candidate for cancer therapy” (Oncotarget, 2018).

Tests used:
[1] = test system: multidrug-resistant P-glycoprotein-overexpressing CEM/ADR5000 leukemia cells; assay: Resazurin reduction assay, CEM/ADR5000; assay type: cell-based, human; conditions: Homo sapiens; CEM/ADR5000, resazurin assay, 72 h
Text: (§1) The cell lines used in the present work, their origins and maintenance conditions were previously reported. In brief, drug-sensitive CCRF-CEM and multidrug resistant P-glycoprotein-over-expressing CEM/ADR5000 leukemia cells, MDA-MB-231-pcDNA3 breast cancer cells and their transfectant subline MDA-MB-231-BCRP clone 23, HCT116 (p53^+/+) colon cancer cells and its knockout clone HCT116 (p53^-/-), U87.MG glioblastoma multiform cells and their transfectant subline U87.MGΔEGFR as well as HEK293 human embryonic kidney cells transfected with or without a cDNA for ABCB5 were used. The human peripheral mononuclear cells (PMNC) were isolated from fresh blood samples of a healthy donor by using Histopaque® (Sigma-Aldrich, Taufkirchen, Germany).
(§2) Resazurin reduction assay was conducted to test the cytotoxicity of the compounds. This assay is based on the reduction of resazurin to resorufin by viable cells. […] Briefly, aliquots of 0.5×10^4 adherent cells which were allowed to attach overnight and 1×10^4 suspension cells per well were seeded in 96-well-plates with or without the addition of varying concentrations of the test substance to get a total volume of 200 μL/well. After 72 h incubation and addition of resazurin (Sigma-Aldrich) for 4 h, staining was measured by an Infinite M2000 ProTM plate reader (Tecan, Germany) using an excitation wavelength of 544 nm and an emission wavelength of 590 nm. Each assay was independently performed for at least three times, with six parallel replicates each. The protocol has been recently reported. Fifty percent inhibition concentrations (IC50) represent the drug concentrations required to inhibit 50% of cell proliferation, which were fitted with nonlinear regression using GraphPad® Prism7.

[2] = test system: HEK293 human embryonic kidney cells; assay: Resazurin reduction assay, HEK293; assay type: cell-based; conditions: 72 h
Text: as §1
as §2, with “Each assay was independently performed for at least three times, with six parallel replicates each. The protocol has been recently reported. Fifty percent inhibition concentrations (IC50) represent the drug concentrations required to inhibit 50% of cell proliferation, which were fitted with nonlinear regression using GraphPad® Prism7.” left out

HEK293-ABCB5 cells = assay: Resazurin reduction assay, HEK293-ABCB5; assay type: cell-based; conditions: Homo sapiens, 72 h
Text: as §1
as §2, with “Each assay was independently performed for at least three times, with six parallel replicates each. The protocol has been recently reported. Fifty percent inhibition concentrations (IC50) represent the drug concentrations required to inhibit 50% of cell proliferation, which were fitted with nonlinear regression using GraphPad® Prism7.” left out

[3] = test system: drug-sensitive wild-type cell lines; assay: Resazurin reduction assay, range over drug-sensitive wild-type cell lines; assay type: cell-based; conditions: Homo sapiens
Text: as §1
as §2, with “Each assay was independently performed for at least three times, with six parallel replicates each. The protocol has been recently reported. Fifty percent inhibition concentrations (IC50) represent the drug concentrations required to inhibit 50% of cell proliferation, which were fitted with nonlinear regression using GraphPad® Prism7.” left out

CCRF-CEM cells [4] = assay: Protease viability marker assay (GF-AFC); assay type: cell-based; conditions: Homo sapiens, 72 h
Method: The protease viability marker assay was performed to exclude the possibility that the cytotoxicity of Aloe-emodin measured by the resazurin assay was artificially influenced by any non-intended interaction with Aloe-emodin-induced ROS generation. The assay measures the protease activity within living cells. The protease activity is restricted to intact viable cells and is measured using a flourogenic, cell permeant, peptide substrate (glyxyl-phenylalanyl-aminoflourocoumarin; GF-AFC). The substrate enters intact cells, where it is cleaved by proteases to generate a fluorescent signal proportional to the number of living cells. Briefly, CCRF-CEM cells (2×10^4cells/well) were seeded in 96 well plate. Aloe-emodin was added in a dose dependent manner (0.001 – 100 μM). After 72 h, 100 μL of GF-AFC substrate (Promega, Madison, USA) were added to each well, cells were incubated for 30 min at 37°C. Using Infinite M2000Pro™ plate reader (Tecan, Crailsheim, Germany), the fluorescent intensity was measured at an excitation wavelength 400 nm, and emitted light was collected at 505 nm.

CCRF-CEM cells [5] = assay: Alkaline comet assay (DNA damage); assay type: cell-based, human; conditions: 1-, 2- or 4-fold IC50, 24 h
Method: The OxiSelect™ Comet Assay Kit (Cell Biolabs/Biocat, Heidelberg, Germany) was used to detect DNA damage according to the manufacturer’s instructions. CCRF-CEM cells treated with 1-, 2- and 4-fold IC50 of Aloe-emodin for 24 h. Then, the cells were mixed with agarose and applied to OxiSelect™ Comet Assay slides. These slides including the embedded cells were treated with lysis buffer and alkaline solution. Subsequently, electrophoresis was performed on the slide with a voltage of 22 V for 30 min corresponding to 1 V/cm of the electrophoresis chamber. These slides were washed with distilled water. After fixation with 70% ethanol, the slides were stained with by a fluorescent DNA binding dye.
Then, the slides were photographed by a fluorescence microscope (EVOSs FL Cell Image System, Thermo Fisher Scientific Waltham, USA) using a FITC filter with an excitation wavelength of 490 nm and emission at 520 nm. At least 50 cells per image were randomly selected and analyzed with the OpenComet software (http://www.cometbio.org). Percentages of tail DNA, tail moment and olive moment were assessed as parameters for DNA damage. The statistical significance was determined by one-way ANOVA with Tukey’s multiple comparison test.

CCRF-CEM cells [6] = assay: Cell cycle analysis (PI, flow cytometry); assay type: cell-based, human; conditions: 4-fold IC50, 24 h
Method: The cells were collected, washed in PBS and fixed with ice-cold 96% ethanol. After washing the cells with PBS again, the cells were dissolved in PBS and stained with propidium iodide (PI, Sigma-Aldrich) at a final concentration of 50 μg/mL for 15 min in the dark. Cell cycle analyses were performed using a BD Accuri™ C6 Flow cytometer (Becton-Dickinson, Heidelberg, Germany) at 488 nm excitation wavelength, and emission was measured by a 610/20 nm band pass filter. All experiments were performed at least in triplicates. The protocol has been recently reported by us.

[7] = test system: mRNA expression (DUSP6, HHEX, MCMDC2, CRCP) in CCRF-CEM cells; assay: Microarray-based mRNA expression profiling; assay type: cell-based, human; conditions: CCRF-CEM treated with IC50 for 48 h vs DMSO; FC: fold change
Method: We performed microarray hybridizations to find clues on the possible mechanisms of action of Aloe-emodin. CCRF-CEM cells were treated with the IC50 of Aloe-emodin or DMSO for 48 h. Using Chipster software, 1712 genes were deregulated upon Aloe-emodin treatment in comparison with DMSO treatment as control. These genes were subsequently subjected to Ingenuity Pathway Analysis (IPA) to obtain profiles of possibly affected signaling pathways. The most pronounced molecular and cellular functions identified by IPA were: cell death and survival, cellular growth and proliferation, cellular development, gene expression, cellular function and maintenance (Figure 4A).
Total RNA was isolated by InviTrap Spin Universal RNA Mini kit (Stratec Molecular, Berlin, Germany) according to the manufacturer’s instructions. The quality control of total RNA, probe labeling, hybridization, scanning and data analysis was performed in the Genomics and Proteomics Core Facility at the German Cancer Research Center (DKFZ, Heidelberg, Germany). Details have been previously described. The Chipster software was used to filter the set of differentially expressed genes obtained from microarray hybridization (http://chipster.csc.fi/) with a p value lower than 0.05. These filtered genes with fold-changes of more than 1-fold were selected for Ingenuity Pathways Analysis Software (http://www.ingenuity.com/ Ingenuity Systems, Redwood City, CA, USA) to obtain profiles of genetic networks and signaling pathways. The protocol has been recently reported by us.

IC50 [1]: 12.8 µM
IC50 (CCRF-CEM cells [4]): 13.8 µM
Compound: O=C1c2cccc(O)c2C(=O)c2c(O)cc(CO)cc21 [Aloe-emodin]
IC50 [2]: 16.9 µM
IC50 (HEK293-ABCB5 cells): 25.9 µM
IC50 ([3]; drug-sensitive wild-type cell lines HCT116(p53+/+), U87.MG, MDA-MB-231-pcDNA, HEK293): 16.5 to 22.3 µM
IC50 ([3]; drug-sensitive wild-type cell lines incl. CCRF-CEM (abstract)): 9.87 to 22.3 µM
DNA damage (comet tails, tail DNA %, tail and olive tail moment) (CCRF-CEM cells [5]): induced DNA damage in a dose-dependent manner
cell cycle arrest (CCRF-CEM cells [6]): clear arrest in the S-phase
Microarray data (FC), CRCP [7]: -2.219 FC
Microarray data (FC), DUSP6 [7]: 2.403 FC
Microarray data (FC), HHEX [7]: 2.321 FC
Microarray data (FC), MCMDC2 [7]: -2.227 FC
